18 compounds from patent publication US20190010158A1, “ANTITUMOR EFFECT POTENTIATOR COMPRISING PYRROLOPYRIMIDINE COMPOUND” (TAIHO PHARMACEUTICAL CO., LTD, priority 2015, published 2019) can be followed below.

Several values for one entry are separate records, joined by “and”; a condition that tells them apart may be missing. Identical values can stand only once. Like-named read-outs stand apart in the source and are kept apart here.

The test system of assay [1] is tumor cell lines shown in Table 42. Description: Example 11: combined use with antimetabolite, cell growth inhibition test (IC50 ratio, CI). The class given is cell-based.
Assay [2] has as its target T1, NAE (heterodimer of APPBP1 and UBA3) (Homo sapiens, UniProt Q8TBC4).
T1 construct: amino acids 1 to 463 of human UBA3 protein; made in house; host or cells: Sf9 insect cells (baculovirus co-infection) for NAE; E. coli BL21 (DE3) for GST-UBC12
T1 sequence (Q8TBC4 1-463): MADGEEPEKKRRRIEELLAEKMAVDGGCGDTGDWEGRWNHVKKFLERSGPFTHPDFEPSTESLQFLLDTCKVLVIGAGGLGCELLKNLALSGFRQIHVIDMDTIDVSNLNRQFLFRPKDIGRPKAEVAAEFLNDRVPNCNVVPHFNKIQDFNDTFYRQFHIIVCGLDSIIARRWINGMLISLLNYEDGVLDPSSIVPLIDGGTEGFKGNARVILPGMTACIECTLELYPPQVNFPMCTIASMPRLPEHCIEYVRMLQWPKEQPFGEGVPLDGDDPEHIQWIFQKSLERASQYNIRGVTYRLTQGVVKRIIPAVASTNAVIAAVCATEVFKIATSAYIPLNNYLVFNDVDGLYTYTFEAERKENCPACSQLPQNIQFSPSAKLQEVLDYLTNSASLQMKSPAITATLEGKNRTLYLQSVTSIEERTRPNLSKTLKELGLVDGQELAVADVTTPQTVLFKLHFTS
T1 sequence (Q13564 1-534 partner): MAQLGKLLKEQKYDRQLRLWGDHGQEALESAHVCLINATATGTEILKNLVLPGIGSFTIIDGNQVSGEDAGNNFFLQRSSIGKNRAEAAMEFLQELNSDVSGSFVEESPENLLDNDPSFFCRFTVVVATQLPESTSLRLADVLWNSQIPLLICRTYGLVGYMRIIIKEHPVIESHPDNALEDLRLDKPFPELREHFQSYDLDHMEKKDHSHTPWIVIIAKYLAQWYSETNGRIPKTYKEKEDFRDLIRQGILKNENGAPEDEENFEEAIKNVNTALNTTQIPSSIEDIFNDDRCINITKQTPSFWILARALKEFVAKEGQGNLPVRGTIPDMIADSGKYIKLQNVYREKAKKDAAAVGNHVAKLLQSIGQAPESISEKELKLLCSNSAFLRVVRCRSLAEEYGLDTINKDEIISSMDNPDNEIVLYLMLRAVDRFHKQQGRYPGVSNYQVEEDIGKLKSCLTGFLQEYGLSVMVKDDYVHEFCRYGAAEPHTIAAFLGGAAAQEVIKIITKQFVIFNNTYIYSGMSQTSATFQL
Description: Nedd8 conjugation inhibitory activity (AlphaScreen). The class given is biochemical. The note with it: purified NAE, GST-UBC12, ATP, Biotin-Nedd8, reaction 90 minutes.

The subject of assay [3] is human acute T lymphoblastic leukemia CCRF-CEM cell lines. Description: Cell growth inhibition 1 (CellTiter-Glo). Type of assay: cell-based. The note with it: culture with test compound 72 hours. Background: Cellular ATP, detected with luciferase, serves as a proxy for viable cell number.
Where [4] appears, read: A431, IC50 of Reference Example Compound 55 : IC50 of other compound = 1:value.
Where [5] appears, read: A431, combined use with Reference Example Compound 55.

On to `Nc1ccn([C@@H]2O[C@H](CO)[C@@H](O)C2(F)F)c(=O)n1` [Gemcitabine, gemcitabine], for which the “IC50 Ratio” value in assay [1] (setting [4]) is on record as 0.01. Also, the CI in assay [1] (A431, Reference Example Compound 55:other compound 1:0.007, at ED50) worked out at 0.70; in assay [1] (A431, Reference Example Compound 55:other compound 1:0.02, at ED50), 0.49. Further, the “Comprehensive Evaluation” value in assay [1] (setting [5]) is given as “Synergism (0.3-0.7)”.
For `Nc1nc2[nH]cc(CCc3ccc(C(=O)N[C@@H](CCC(=O)O)C(=O)O)cc3)c2c(=O)[nH]1` [Pemetrexed, pemetrexed], in assay [1], the CI is 0.73 and 0.55; the “Comprehensive Evaluation” value is given as “Moderate”; the “IC50 Ratio” value is 34.
In turn, `CS(=O)(=O)c1ccccc1C#Cc1cn([C@@H]2O[C@H](CNS(N)(=O)=O)[C@@H](O)[C@H]2O)c2ncnc(N)c12` [Reference Example 22, 4-Amino-7-[(2R,3R,4S,5R)-3,4-dihydroxy-5-[(sulfamoylamino)methyl]tetrahydrofuran-2-yl]-5-[2-(2-methylsulfonylphenyl)ethynyl]pyrrolo[2,3-d]pyrimidine] registered an IC50 in assay [2] of at most 0.003 µM.
Same read-out and setting: for `Nc1ncnc2c1c(C#Cc1c(F)cc(N3CCOCC3)cc1F)cn2[C@@H]1O[C@H](CNS(N)(=O)=O)[C@@H](O)[C@H]1O` [Reference Example 23, 4-[4-[2-[4-Amino-7-[(2R,3R,4S,5R)-3,4-dihydroxy-5-[(sulfamoylamino)methyl]tetrahydrofuran-2-yl]pyrrolo[2,3-d]pyrimidin-5-yl]ethynyl]-3,5-difluoro-phenyl]morpholine] the value was at most 0.003 µM; for `Nc1cc(F)c(C#Cc2cn([C@@H]3O[C@H](CNS(N)(=O)=O)[C@@H](O)[C@H]3O)c3ncnc(N)c23)c(F)c1` [Reference Example 24, 4-Amino-5-[2-(4-amino-2,6-difluoro-phenyl)ethynyl]-7-[(2R,3R,4S,5R)-3,4-dihydroxy-5-[(sulfamoylamino)methyl]tetrahydrofuran-2-yl]pyrrolo[2,3-d]pyrimidine], at most 0.003 µM.
As for `Nc1ncnc2c1c(C#Cc1c(F)cc(N3CCCC3=O)cc1F)cn2[C@@H]1O[C@H](CNS(N)(=O)=O)[C@@H](O)[C@H]1O` [Reference Example 33, 4-Amino-5-[2-[2,6-difluoro-4-(2-oxopyrrolidin-1-yl)phenyl]ethynyl]-7-[(2R,3R,4S,5R)-3,4-dihydroxy-5-[(sulfamoylamino)methyl]tetrahydrofuran-2-yl]pyrrolo[2,3-d]pyrimidine], the IC50 is at most 0.003 µM in assay [2] and 37 nM in assay [3].
On the same counts, the results for `Nc1ncnc2c1c(C#Cc1c(F)cc(N3CC(O)C3)cc1F)cn2[C@@H]1O[C@H](CNS(N)(=O)=O)[C@@H](O)[C@H]1O` [Reference Example 39, 4-Amino-5-[2-[2,6-difluoro-4-(3-hydroxyazetidin-1-yl)phenyl]ethynyl]-7-[(2R,3R,4S,5R)-3,4-dihydroxy-5-[(sulfamoylamino)methyl]tetrahydrofuran-2-yl]pyrrolo[2,3-d]pyrimidine] are at most 0.003 µM and 7.8 nM.
On the same counts, the results for `Nc1ncnc2c1c(C#Cc1c(F)cc(N3CCC[C@@H](O)C3)cc1F)cn2[C@@H]1O[C@H](CNS(N)(=O)=O)[C@@H](O)[C@H]1O` [Reference Example 40, 4-Amino-5-[2-[2,6-difluoro-4-[(3R)-3-hydroxy-1-piperidyl]phenyl]ethynyl]-7-[(2R,3R,4S,5R)-3,4-dihydroxy-5-[(sulfamoylamino)methyl]tetrahydrofuran-2-yl]pyrrolo[2,3-d]pyrimidine] are at most 0.003 µM and 19 nM.
Regarding `Nc1ncnc2c1c(C#Cc1c(F)cc(N3CCC(C(=O)O)C3)cc1F)cn2[C@@H]1O[C@H](CNS(N)(=O)=O)[C@@H](O)[C@H]1O` (stereo partly drawn) [Reference Example 41, 1-[4-[2-[4-amino-7-[(2R,3R,4S,5R)-3,4-dihydroxy-5-[(sulfamoylamino)methyl]tetrahydrofuran-2-yl]pyrrolo[2,3-d]pyrimidin-5-yl]ethynyl]-3,5-difluoro-phenyl]pyrrolidine-3-carboxylic Acid], the IC50 in assay [2] is at most 0.003 µM.
With `CCOc1cccc(F)c1C#Cc1cn([C@@H]2O[C@H](CNS(N)(=O)=O)[C@@H](O)[C@H]2O)c2ncnc(N)c12` [Reference Example 55, 4-Amino-7-[(2R,3R,4S,5R)-3,4-dihydroxy-5-[(sulfamoylamino)methyl]tetrahydrofuran-2-yl]-5-[2-(2-ethoxy-6-fluoro-phenyl)ethynyl]pyrrolo[2,3-d]pyrimidine], the concentration for half-maximal inhibition (IC50) in assay [2] was at most 0.003 µM.
Consider `COC(=O)c1cc(F)c(C#Cc2cn([C@@H]3O[C@H](CNS(N)(=O)=O)[C@@H](O)[C@H]3O)c3ncnc(N)c23)c(F)c1` [Reference Example 58, Methyl 4-[2-[4-amino-7-[(2R,3R,4S,5R)-3,4-dihydroxy-5-[(sulfamoylamino)methyl]tetrahydrofuran-2-yl]pyrrolo[2,3-d]pyrimidin-5-yl]ethynyl]-3,5-difluoro-benzoate], for which the IC50 in assay [2] was at most 0.003 µM.
As for `Nc1ncnc2c1c(C#Cc1c(F)cc(N3CCS(=O)(=O)CC3)cc1F)cn2[C@@H]1O[C@H](CNS(N)(=O)=O)[C@@H](O)[C@H]1O` [Reference Example 74, 4-[4-[2-[4-amino-7-[(2R,3R,4S,5R)-3,4-dihydroxy-5-[(sulfamoylamino)methyl]tetrahydrofuran-2-yl]pyrrolo[2,3-d]pyrimidin-5-yl]ethynyl]-3,5-difluoro-phenyl]-1,1-dioxo-1,4-thiazinane], the IC50 in assay [2] is at most 0.003 µM; in assay [3] it was 160 nM.
In assay [2], `CCS(=O)(=O)c1cc(N2CC[C@@H](F)C2)cc(F)c1C#Cc1cn([C@@H]2O[C@H](CNS(N)(=O)=O)[C@@H](O)[C@H]2O)c2ncnc(N)c12` [Reference Example 75, 4-Amino-7-[(2R,3R,4S,5R)-3,4-dihydroxy-5-[(sulfamoylamino)methyl]tetrahydrofuran-2-yl]-5-[2-[2-ethylsulfonyl-6-fluoro-4-[(3R)-3-fluoropyrrolidin-1-yl]phenyl]ethynyl]pyrrolo[2,3-d]pyrimidine] came in with an IC50 of at most 0.003 µM.
On the same count and under the same terms, for `COc1ccc(C#Cc2cn([C@@H]3C[C@H](CNS(N)(=O)=O)[C@@H](O)[C@H]3O)c3ncnc(N)c23)c(S(C)(=O)=O)c1` [Reference Example 113, 4-Amino-7-[(1R,2S,3R,4R)-2,3-dihydroxy-4-[(sulfamoylamino)methyl]cyclopentyl]-5-[2-(4-methoxy-2-methylsulfonyl-phenyl)ethynyl]pyrrolo[2,3-d]pyrimidine] the value was at most 0.003 µM; for `CCS(=O)(=O)c1cc(N2CCCC2)cc(F)c1C#Cc1cn([C@@H]2C[C@H](CNS(N)(=O)=O)[C@@H](O)[C@H]2O)c2ncnc(N)c12` [Reference Example 114, 4-Amino-7-[(1R,2S,3R,4R)-2,3-dihydroxy-4-[(sulfamoylamino)methyl]cyclopentyl]-5-[2-(2-ethylsulfonyl-6-fluoro-4-pyrrolidin-1-yl-phenyl)ethynyl]pyrrolo[2,3-d]pyrimidine], at most 0.003 µM.
As to `CCOc1cccc(F)c1C#Cc1cn([C@@H]2C=C(CNS(N)(=O)=O)[C@@H](O)[C@H]2O)c2ncnc(N)c12` [Reference Example 129, 4-Amino-7-[(1R,4R,5S)-4,5-dihydroxy-3-[(sulfamoylamino)methyl]cyclopent-2-en-1-yl]-5-[2-(2-ethoxy-6-fluoro-phenyl)ethynyl]pyrrolo[2,3-d]pyrimidine], the concentration for half-maximal inhibition (IC50) in assay [2] is at most 0.003 µM; in assay [3], 2.1 nM.
With `Nc1ncnc2c1c(C#Cc1ccccc1)cn2[C@@H]1O[C@H](COS(N)(=O)=O)[C@@H](O)[C@H]1O` [Reference Example 131, [(2R,3S,4R,5R)-5-[4-amino-5-(2-phenylethynyl)pyrrolo[2,3-d]pyrimidin-7-yl]-3,4-dihydroxy-tetrahydrofuran-2-yl]methyl sulfamate], the IC50 in assay [2] is at most 0.003 µM.
Consider `O=c1[nH]c(=O)n([C@H]2C[C@H](O)[C@@H](CO)O2)cc1C(F)(F)F` [Trifluridine, trifluridine], for which the “IC50 Ratio” value in assay [1] (setting [4]) is 0.5. Besides, the CI worked out at 1.06 in assay [1] (A431, Reference Example Compound 55:other compound 1:0.33, at ED50) and 0.74 in assay [1] (A431, Reference Example Compound 55:other compound 1:1, at ED50). The “Comprehensive Evaluation” value in assay [1] (setting [5]) is “Additive (0.9-1.10)”.

Broadly, the IC50 is the point on the concentration scale where inhibition reaches its midpoint. A low value points to greater potency in that assay.
